{"source": "patent US12000833B2", "about": "“Marker for predicting the sensitivity to PI3K inhibitors” (INSERM (INSTITUT NATIONAL DE LA SANTE ET DE LA RECHERCHE …, priority 2017, dated 2024)", "key": {"phosphorylation of Akt [1]": {"test_system": "phosphorylation of Akt", "assay": "Serum (FBS)-stimulated phosphorylation of Akt and downstream effectors in Capan-1 cells", "type": "cell-based, human", "details": "Capan-1, after 10 min stimulation with serum", "procedure": "Light amino acid-labelled and heavy amino acid-labelled Capan-1 cells (respectively called thereafter “light” and “heavy” cells) were washed twice with phosphate buffer saline (PBS; SIGMA; D8537), trypsined (GE Healthcare; L11-002) and plated at a concentration of 2.5.10^6 cells in a 14.4 cm-diameter dish (Dutscher, 055063). After 48 h, cells were serum-starved during 16 h, over-night. Light and heavy cells were pre-treated respectively with inhibitors or their accordingly diluted vehicule (DMSO) (for drug description and used concentration) during 1 h, then stimulated or not for 10 min or 24 h with 2% dialysed FBS. After 10 min and 24 h of FBS stimulation, heavy cells and light cells were maintained on ice, washed three times with cold PBS and lysed.\n(§1) In pancreatic cancer, PI3K signalling is associated with a poor prognosis. […] However, this was not always coupled to a significant increase in the phosphorylation levels of canonical targets, pPRAS40 or pS6K, in all patients (data not shown), emphasizing the importance of other signalling targets downstream PI3Ks. Long-term inhibition of a core signal node is believed to induce an adaptive modification of the entire signal network. We tested if long-term inhibition of each PI3K isoforms induces a differential change in pancreatic cancer cell adaptation. To answer this question, we devise a strategy to globally identify this adaptive response focusing on phospho-site regulated signalling pathways (data not shown). […] Serum, which consist of a combination of RTK and GPCR stimuli mimicking physiopathological signalling, induces after 10 min a significant activation of class I PI3Ks as assessed by the phosphorylation of Akt and known downstream effectors PRAS40, S6K, S6 (data not shown). […] We thus chose these stimulation conditions to identify differential phosphoproteome across time in response to three PI3K iso form-selective drugs after SILAC metabolic labelling and enrichment in trypsine-based phosphopeptides by TiO2 beads allowing a robust S/T/Y phosphorylation quantification of thousands of proteins."}, "phosphorylation of Akt [2]": {"test_system": "phosphorylation of Akt", "assay": "RTK-driven (EGF) or GPCR-driven (LPA) short-term phosphorylation of Akt", "type": "cell-based, human", "details": "data not shown", "description": "as §1"}, "[3]": {"test_system": "metastatic pancreatic cancer", "details": "cited from earlier work"}, "[4]": {"details": "monotherapy, gemcitabine-resistant metastatic pancreatic cancer patient"}}}
{"molecule": "Cc1nc(NC(=O)N2CCC[C@H]2C(N)=O)sc1-c1csc(C(C)(C)C)n1", "note": "[A66]", "values": [{"measurement": "pS473 and pT308Akt levels", "setting": "phosphorylation of Akt [1]", "value": "significantly inhibited"}, {"measurement": "RTK-driven (EGF) short-term phosphorylation of Akt", "setting": "phosphorylation of Akt [2]; EGF stimulation", "value": "inhibited"}]}
{"molecule": "Cc1cc(C(C)Nc2ccccc2)c2nc(N3CCOCC3)cc(=O)n2c1", "note": "(centres unmarked) [TGX-221]", "values": [{"measurement": "pS473 and pT308Akt levels", "setting": "phosphorylation of Akt [1]", "value": "significantly inhibited"}]}
{"molecule": "Nc1ccn([C@@H]2O[C@H](CO)[C@@H](O)C2(F)F)c(=O)n1", "note": "[gemcitabine]", "values": [{"measurement": "patient survival", "setting": "[3]; standard of line chemotherapy, pancreatic cancer patients", "value": "increases their survival of only a few weeks"}]}
{"molecule": "CO[C@H]1C[C@@H]2CC[C@@H](C)[C@@](O)(O2)C(=O)C(=O)N2CCCC[C@H]2C(=O)O[C@H]([C@H](C)C[C@@H]2CC[C@@H](OCCO)[C@H](OC)C2)CC(=O)[C@H](C)/C=C(\\C)[C@@H](O)[C@@H](OC)C(=O)[C@H](C)C[C@H](C)/C=C/C=C/C=C/1C", "note": "[RAD001]", "values": [{"measurement": "clinical action", "setting": "[3]; [4]", "value": "only a minimal clinical action"}, {"measurement": "tolerability", "setting": "[3]; [4]", "value": "well tolerated"}]}
{"molecule": "O=C1NC(=O)/C(=C/c2ccc(-c3ccc(F)cc3O)o2)S1", "note": "[AS-252424]", "values": [{"measurement": "pS473 and pT308Akt levels", "setting": "phosphorylation of Akt [1]", "value": "significantly inhibited"}, {"measurement": "GPCR-driven (LPA) short-term phosphorylation of Akt", "setting": "phosphorylation of Akt [2]; LPA stimulation", "value": "inhibited"}]}
